In US11214803B2, “Modulators of YAP1 expression” (Ionis Pharmaceuticals, Inc., priority 2019, dated 2022):
Strand notation (5' to 3'): a small letter for the sugar, then the base; units joined by * are phosphorothioate-linked, units joined directly phosphodiester-linked; [ ] holds rarer units or linkages, { } end groups; capitals alone tell only the bases. k = constrained ethyl (cEt); [5mC] = 5-methylcytosine; d = 2'-deoxy (DNA)

System: Yap1 mRNA
Assay: Dose-dependent inhibition of human Yap1 in A-431 cells (Example 8, 10,000 cells per well, RTS4814)
Format: cell-based
Settings: free uptake, approximately 48 hours, RTS4814; for Yap1 mRNA, % UTC: A-431 cells, 10,000 cells per well; for IC50: A-431 cells, linear regression on log/linear plot
Protocol: Modified oligonucleotides described in the studies above were tested at various doses in A-431 cells. Cultured A-431 cells at a density of 10,000 cells per well were treated using free uptake with modified oligonucleotides diluted to concentrations described in the tables below. After approximately 48 hours, Yap1 mRNA levels were measured as previously described using the Human Yap1 primer-probe set RTS4814. Yap1 mRNA levels were normalized to total RNA content, as measured by RIBOGREEN®. Results are presented in the tables below as percent control of the amount of Yap1 mRNA relative to untreated control cells (% UTC). IC50s were calculated using a linear regression on a log/linear plot of the data in excel.

Substance	Yap1 mRNA, % UTC (31.3 nM) [% UTC]	Yap1 mRNA, % UTC (125.0 nM) [% UTC]	Yap1 mRNA, % UTC (500.0 nM) [% UTC]	Yap1 mRNA, % UTC (2000.00 nM) [% UTC]	IC50 [µM]
1074627 (DNA k[5mC]*k[5mC]*kT*dG*dT*dT*dA*dT*dG*dA*dA*d[5mC]*d[5mC]*k[5mC]*kT*kT; antisense) [compound 1074627]	17	5	3	3	< 0.02
1074628 (DNA kG*k[5mC]*k[5mC]*dT*dG*dT*dT*dA*dT*dG*dA*dA*d[5mC]*k[5mC]*k[5mC]*kT) [compound 1074628]	29	13	7	6	< 0.02
1074629 (DNA kG*kA*kG*dA*dT*dT*dT*dT*dA*dT*dG*d[5mC]*d[5mC]*kT*kG*kT; antisense) [compound 1074629]	21	5	3	3	< 0.02
1074630 (antisense kA*kG*kA*dG*dA*dT*dT*dT*dT*dA*dT*dG*d[5mC]*k[5mC]*kT*kG) [compound 1074630]	57	23	10	6	< 0.02
1074723 (antisense kG*kG*kT*dA*dA*dA*dG*dG*dA*dA*dG*dA*dT*k[5mC]*kT*k[5mC]) [compound 1074723]	56	24	11	8	< 0.02
1074726 (antisense kG*kG*kT*dA*dT*dA*dA*d[5mC]*dT*dG*dG*dG*d[5mC]*kA*kA*kA) [compound 1074726]	26	8	4	3	< 0.02
1074753 (kT*kA*k[5mC]*dA*dT*dT*dA*dG*dG*dA*dA*d[5mC]*dA*kA*kG*kG; antisense) [compound 1074753]	42	10	6	4	< 0.02
1074758 (k[5mC]*kA*kG*dT*dT*dA*dA*dG*d[5mC]*dA*d[5mC]*dT*dT*kT*kT*kA; antisense) [compound 1074758]	74	23	8	5	0.1
1074762 (kG*k[5mC]*kT*dA*d[5mC]*d[5mC]*d[5mC]*dA*dA*dT*dA*d[5mC]*dA*kA*k[5mC]*k[5mC]; antisense) [compound 1074762]	74	32	14	8	0.1
1074792 (kA*kT*k[5mC]*dA*dA*dT*dG*dT*dG*d[5mC]*dT*d[5mC]*d[5mC]*kA*kT*k[5mC]; antisense) [compound 1074792]	48	17	7	5	< 0.02
1074794 (k[5mC]*kA*kA*dA*dT*d[5mC]*dA*dA*dT*dG*dT*dG*d[5mC]*kT*k[5mC]*k[5mC]; antisense) [compound 1074794]	56	23	10	6	< 0.02
1074795 (k[5mC]*k[5mC]*kA*dA*dA*dT*d[5mC]*dA*dA*dT*dG*dT*dG*k[5mC]*kT*k[5mC]; antisense) [compound 1074795]	38	14	7	5	< 0.02
1074817 (k[5mC]*kT*kG*dA*dA*dT*dA*dT*dT*dG*d[5mC]*d[5mC]*dA*k[5mC]*k[5mC]*k[5mC]; antisense) [compound 1074817]	50	22	13	11	< 0.02
1074850 (kT*kT*kG*dT*dT*dA*dT*dG*dA*dT*dA*dG*dG*k[5mC]*kA*k[5mC]; antisense) [compound 1074850]	63	20	7	5	0.04
1074851 (kA*kT*kT*dG*dT*dT*dA*dT*dG*dA*dT*dA*dG*kG*k[5mC]*kA; antisense) [compound 1074851]	51	19	9	7	< 0.02
1074852 (kA*kA*kT*dT*dG*dT*dT*dA*dT*dG*dA*dT*dA*kG*kG*k[5mC]; antisense) [compound 1074852]	36	11	4	4	< 0.02
1075041 (antisense kG*kA*kT*dT*dA*dT*dA*dA*dA*dG*dA*dG*dG*k[5mC]*kT*k[5mC]) [compound 1075041]	62	31	11	7	0.05
1075047 (antisense kT*kA*kA*dA*dA*dT*dT*dA*dG*dA*d[5mC]*dT*d[5mC]*k[5mC]*k[5mC]*k[5mC]) [compound 1075047]	80	63	27	10	0.2
1075048 (antisense kG*kT*kA*dA*dA*dA*dT*dT*dA*dG*dA*d[5mC]*dT*k[5mC]*k[5mC]*k[5mC]) [compound 1075048]	76	42	13	5	0.1
1075078 (antisense k[5mC]*kA*kA*d[5mC]*dT*dA*dT*dA*d[5mC]*dG*dG*dT*d[5mC]*k[5mC]*kA*kT) [compound 1075078]	65	32	12	4	0.1
1075081 (antisense kG*kA*kT*dT*dA*d[5mC]*dA*dA*dA*dG*dA*d[5mC]*dA*kG*k[5mC]*k[5mC]) [compound 1075081]	76	50	22	9	0.1
1075111 (kT*kA*kG*dG*dA*dA*dT*dA*dT*dG*dG*dG*dT*kA*kG*kT; antisense) [compound 1075111]	42	11	6	5	< 0.02
1075112 (kA*kT*kA*dT*dA*dG*dG*dA*dA*dT*dA*dT*dG*kG*kG*kT; antisense) [compound 1075112]	87	36	13	7	0.1
1075115 (kG*kT*kA*dT*dA*dG*d[5mC]*d[5mC]*dT*dT*dA*dT*dT*k[5mC]*kT*kT; antisense) [compound 1075115]	57	41	17	9	0.1
